Patent US4543255A, “Carbocyclic analogs of purine 2'-deoxyribofuranosides” (Southern Research Institute, priority 1984, dated 1985)
≈ marks a conversion by molar mass, not a printed value. Entries after “also recorded” stand apart in the source; their conditions may differ. Read-outs that look alike come from different tables or passages of the source.

Legend:
[1] = test system: Herpes Simplex Virus Type 2, Strain MS; assay: antiviral activity vs herpes simplex virus type 2 (virus-induced cytopathogenic effects in host cells); format: cell-based; conditions: for VR (Virus Rating): VR ≥1 indicates definite antiviral activity, 0.5-0.9 marginal to moderate; for EC50: read-out: MIC50 (concentration for 50% inhibition of virus-induced cytopathogenic effects); for antiviral activity against HSV-2 (in words): comparisons are with Ara-A (positive control)
Experimental: (§1) Certain representatives of Formulas V-VIII have potent antiviral activity and may be useful for the treatment of virus-induced diseases. The antiviral activity of compounds represented by Formulas V-VIII was measured as a virus rating (VR), and the potency (MIC50) was determined as the concentration of the tested compound required to inhibit virus-induced cytopathogenic effects in host cells by 50%. Carbocyclic analogs of 2'-deoxyribofuranosides represented by Formulas V-VIII have unequivocal and generally high activity in inhibiting replication of both type 1 herpes simplex virus (HSV-1) and type 2 herpes simplex virus (HSV-2). […] Notable examples are the carbocyclic analogs of 2,6-diaminopurine 2'-deoxyribofuranoside (Example 5), 2'-deoxyguanosine (Example 6), 2'-deoxythioguanosine (Example 7), 2,6-diamino-8-azapurine 2'-deoxyribofuranoside (Example 9), and 2'-deoxy-8-azaguanosine (Example 10).
(§2) Carbocyclic analogs (Formulas (V-VIII) of 2'-deoxyribofuranoside derivatives of 2-amino-6-substituted-purines and of 2-amino-6-substituted-8-azapurines were tested for antiviral activity against viruses that replicate in mammalian cells growing in cell culture. The results of these tests against herpes simplex viruses are summarized in Table 1. The Virus Rating (VR) is a weighted measurement of antiviral activity determined by the method of Ehrlich et al., Annals of the New York Academy of Science, volume 130, pages 5-16, 1965. In tests carried out by this method, a VR of 0.5-0.9 indicates marginal to moderate antiviral activity, and a VR equal to or greater than 1 indicates definite antiviral activity. The higher the value of VR, the greater is the antiviral activity. The MIC50 (minimum inhibitory concentration, 50%) is the concentration of a test compound required for 50% inhibition of virus-induced cytopathogenic effects. The 2'-deoxyribofuranoside analogs of Examples 4-10 have unequivocal and selective antiviral activity against both type 1 and type 2 strains of herpes simplex virus.
(§3) ^a Antiviral evaluations were performed with HSV1 and HSV2 replicatin
(§4) either in secondary cultures of rabbit kidney cells or in Vero cells.
(§5) ^b 9D-Arabinofuranosyladenine was tesed as a positive control; the
(§6) range of values of VR and MIC50 came from several tests with either
(§7) rabbit kidney cells or Vero cells as the host cells.

[2] = test system: Herpes Simplex Virus Type 1, Strain 377; assay: antiviral activity vs herpes simplex virus type 1 (virus-induced cytopathogenic effects in host cells); format: cell-based; conditions: for VR (Virus Rating): VR ≥1 indicates definite antiviral activity, 0.5-0.9 marginal to moderate; for EC50: Human alphaherpesvirus 1, Vero, read-out: MIC50 (concentration for 50% inhibition of virus-induced cytopathogenic effects); for antiviral activity against HSV-1 (in words): comparisons are with Ara-A (positive control)
Experimental: as §1, §2, §3, §4, §5, §6, §7

[3] = HSV-2 strain MS, rabbit kidney cells or Vero cells
[4] = Human alphaherpesvirus 2, HSV-2 strain MS, rabbit kidney cells or Vero cells
[5] = HSV-1 strain 377, rabbit kidney cells or Vero cells

Nc1nc(Cl)c2ncn([C@@H]3C[C@H](CO)[C@@H](O)C3)c2n1 (relative stereo) [Example 4, (1α, 2β, 4α)-4-(2-Amino-6-chloro-9H-purin-9-yl)-2-hydroxycyclopentanemethanol]
VR (Virus Rating) [1, 3]: 2.0
EC50 [1, 4]: 37 µg/mL (≈ 130 µM)
VR (Virus Rating) [2, 5]: 1.9
EC50 [2, 5]: 8.1 µg/mL (≈ 28.5 µM)

Nc1nc(N)c2ncn([C@@H]3C[C@H](CO)[C@@H](O)C3)c2n1 (relative stereo) [Example 5, (1α, 2β, 4α)-4-(2,6-Diamino-9H-purin-9-yl)-2-hydroxycyclopentanemethanol]
antiviral activity against HSV-2 (in words) [1]: equivalent or superior in activity and potency to Ara-A; also recorded: markedly more effective than was Ara-A
VR (Virus Rating) [1, 3]: 2.9
EC50 [1, 4]: 2.4 µg/mL (≈ 9.08 µM)
antiviral activity against HSV-1 (in words) [2]: more active (VR=4-5) and more potent (lower MIC50)
MIC50 (concentration for 50% inhibition of virus-induced cytopathogenic effects) [2, 5]: 0.3 µg/mL
EC50 [2, 5]: 0.6 µg/mL (≈ 2.27 µM)

Nc1nc2c(ncn2[C@@H]2C[C@H](CO)[C@@H](O)C2)c(=S)[nH]1 (relative stereo) [Example 7]
VR (Virus Rating) [1, 3]: 1.7
EC50 [1, 4]: 32 µg/mL (≈ 114 µM)
antiviral activity against HSV-1 (in words) [2]: more active (VR=4-5) and more potent (lower MIC50)
MIC50 (concentration for 50% inhibition of virus-induced cytopathogenic effects) [2, 5]: 1.8 µg/mL
EC50 [2, 5]: < 3.2 µg/mL

Nc1nc(Cl)c2nnn([C@@H]3C[C@H](CO)[C@@H](O)C3)c2n1 (relative stereo) [Example 8, (1α, 2β, 4α)-4-(5-Amino-7-chloro-3H-1,2,3-triazolo[4,5-d]pyrimidin-3-yl)-2-hydroxycyclopentanemethanol]
VR (Virus Rating) [1, 3]: 1.9
EC50 [1, 4]: 23 µg/mL (≈ 80.8 µM)
MIC50 (concentration for 50% inhibition of virus-induced cytopathogenic effects) [2, 5]: 1.6 µg/mL
EC50 [2, 5]: < 1 µg/mL

Nc1nc2c(ncn2[C@@H]2C[C@H](CO)[C@@H](O)C2)c(=O)[nH]1 (relative stereo) [Example 6, 2-Amino-1,9-dihydro-9-[(1α, 3β, 4α)-3-hydroxy-4-(hydroxymethyl)cyclopentyl]-6H-purin-6-one]
antiviral activity against HSV-2 (in words) [1]: equivalent or superior in activity and potency to Ara-A; also recorded: markedly more effective than was Ara-A
VR (Virus Rating) [1, 3]: 3.7
EC50 [1, 4]: 0.8 µg/mL (≈ 3.02 µM)
antiviral activity against HSV-1 (in words) [2]: more active (VR=4-5) and more potent (lower MIC50)
VR (Virus Rating) [2, 5]: ≥ 4.6
EC50 [2, 5]: < 0.3 µg/mL

Nc1ncnc2c1ncn2[C@@H]1O[C@H](CO)[C@@H](O)[C@@H]1O [Ara-A, 9D-Arabinofuranosyladenine, reference compound]
VR (Virus Rating) [1, 3]: 1.6-2.3
EC50 ([1]; Human alphaherpesvirus 2, Vero): 6.4 to 30 µg/mL (≈ 23.9 to 112 µM)
VR (Virus Rating) [2, 5]: 2.5-3.1
EC50 [2]: 6.4 to 9.8 µg/mL (≈ 23.9 to 36.7 µM)

Nc1nc2c(nnn2[C@@H]2C[C@H](CO)[C@@H](O)C2)c(=O)[nH]1 (relative stereo) [Example 10, 5-Amino-3,6-dihydro-3-[(1α, 2β, 4α)-3-hydroxy-4-(hydroxymethyl)cyclopentyl]-7H-1,2,3-triazolo[4,5-d]pyrimidin-7-one]
antiviral activity against HSV-2 (in words) [1]: equivalent or superior in activity and potency to Ara-A; also recorded: at least as effective as Ara-A against HSV-2
VR (Virus Rating) [1, 3]: 2.1
EC50 [1, 4]: 6.9 µg/mL (≈ 25.9 µM)
antiviral activity against HSV-1 (in words) [2]: more active (VR=4-5) and more potent (lower MIC50); also recorded: much more effective against HSV-1 than was Ara-A
VR (Virus Rating) [2, 5]: 4.2
EC50 [2, 5]: 0.6 µg/mL (≈ 2.25 µM)

Nc1nc(N)c2nnn([C@@H]3C[C@H](CO)[C@@H](O)C3)c2n1 (relative stereo) [Example 9, (1α, 2β, 4α)-4-(5,7-Diamino-3H-1,2,3-triazolo[4,5-d]pyrimidin-3-yl)-2-hydroxycyclopentanemethanol]
antiviral activity against HSV-2 (in words) [1]: equivalent or superior in activity and potency to Ara-A; also recorded: at least as effective as Ara-A against HSV-2
VR (Virus Rating) [1, 3]: 2.3
EC50 [1, 4]: 10 µg/mL (≈ 37.7 µM)
antiviral activity against HSV-1 (in words) [2]: more active (VR=4-5) and more potent (lower MIC50); also recorded: much more effective against HSV-1 than was Ara-A
MIC50 (concentration for 50% inhibition of virus-induced cytopathogenic effects) [2, 5]: 2.0 µg/mL
EC50 [2, 5]: < 3.2 µg/mL
